“Also recorded” adds a separate entry of the source.
Key:
[1] = Ferrous ions (Fe2+) chelating activity (FIC); conditions: for IC50: Fe2+ chelating activity; for FIC, % of Inhibition: compound 5 mM, ferrozine–Fe2+ complex formation
Excerpt: Despite the important biological role of iron, it can cause various pathological diseases, such as neurodegenerative, liver and heart diseases, cancer, and diabetes. In addition, it is able to catalyze the Fenton reaction and lead to the formation of a highly reactive hydroxyl radical. In this regard, the process of transition metal chelation was studied as one of the possible mechanisms of the action of antioxidants. This assay was based on the reaction of binding Fe^2+ ions by the studied compounds under moderately acidic conditions (pH = 6). Unreacted Fe^2+ ions reacted with ferrozine to form a stable dark violet colored complex. […] The chelation of ferrous ions by compounds was estimated by method of Dinis et al.. Briefly, 10 μL of 2 mM FeCl2 was added to 20 μL of the investigated compound (5 mM) and 150 μL of EtOH. The reaction was initiated by the addition of 0.04 mL of 5 mM ferrozine solution. The mixture was left to stand at 35 °C for 10 min. The absorbance of the solution was thereafter measured at 562 nm. The percentage inhibition of ferrozine–Fe^2+ complex formation was calculated as [(A0 − As)/[…]] × 100, where A0 is the absorbance of the control, and As is the absorbance of the compound/standard. Na2EDTA was used as the positive control.

[2] = NBT assay, superoxide radical anion formation by xanthine oxidase; type: biochemical; conditions: sample solution 5 mM in DMSO
Excerpt: The superoxide radical anion was generated in the xanthine/xanthine oxidase enzymatic system and reduced nitroblue tetrazolium (NBT) to an intensely blue colored diformazan (λ = 560 nm). There was a decrease in the concentration of diformazan in the presence of a potential antioxidant that absorbs O2^–•. […] Despite the fact that compounds 2 and 6 were structurally similar to the corresponding disulfides 3 and 4, they were not active in this assay.
EDTA, xanthine, bovine serum albumin, nitroblue tetrazolium, and xanthine oxidase (25 MU) were purchased from Sigma Aldrich, Burlington, MA, USA. The superoxide anions were generated enzymatically by the xanthine oxidase system. The reaction mixture consisted of 2.70 mL of 40 mM sodium carbonate buffer containing 0.1 mM EDTA (pH 10.0), 0.06 mL of 10 mM xanthine, 0.03 mL of 0.5% bovine serum albumin, 0.03 mL of 2.5 mM nitroblue tetrazolium, and 0.06 mL of the sample solution in DMSO at the concentration of 5 mM. An amount of 0.12 mL of xanthine oxidase (0.04 units) was added to the mixture at 25 °C, and the absorbance at 560 nm (by formation of blue formazan) was measured by microplate spectrophotometer for 60 s. A control experiment was carried out by replacing the sample solution with the same amount of DMSO.
Inhibition I (%) = [(1 − Ai/A0) × 100%], where Ai is the absorbance in the presence of the testing compound, A0 is the absorbance of the blank solution [78]. All experiments were performed three times.

A-549 = assay: MTT assay; type: cell-based, human; conditions: Homo sapiens, A549, 72 h
Method: (§1) The antiproliferative activity of aromatic oligosulfides 1–6 was determined against human cell lines, including colon carcinoma HCT-116, breast adenocarcinoma MCF-7, lung adenocarcinoma A-549, colorectal carcinoma SW-480, and non-tumourigenic WI-38, using the MTT assay (Table 4). […] However, some selectivity for cancer cells was evident and the IC50 values for non-tumourigenic cells were slightly higher for compounds 1 and 2.
(§2) Cell survival was determined by the MTT [3-(4,5-[…])-2,5-diphenyl tetrazolium bromide] assay by Niks method with small modifications. HCT-116 (colon carcinoma), MCF-7 (breast adenocarcinoma), A-549 (lung adenocarcinoma) and SW-480 (colorectal carcinoma) human cancer cell lines and WI-38 (cell line composed of fibroblasts) were cultured in DMEM (PanEco, Moscow, Russia) with Glutamin (PanEco, Moscow, Russia) and antibiotics (PanEco, Moscow, Russia) in CO2 (5%) at 37 °C. The compounds were dissolved (20 mM) in DMSO and then added to the cell culture medium at the required concentration with a maximum DMSO content of 0.5 v/v%. At these concentrations, DMSO had no effect on cell viability, as was shown in the control experiments. Cells were cultured in 96-well plates (7000 cells/well) and treated with various concentrations (from […]) of the test compounds as well as doxorubicin at 37 °C for 72 h. Cell viability was determined using the MTT assay, which quantified dehydrogenase activity. Then, the cells were incubated at 37 °C for 50 min with a solution of MTT ([…], 5 mg × mL^−1) (Sigma-Aldrich, St. Louis, MO, USA). The supernatant was discarded, and cells were dissolved in DMSO ([…]). The optical density of the solution was measured at 570 nm with use of a multiwall-plate reader (Anthos Zenyth 2000rt, Biochrom, Cambridge, UK), and the percentage of surviving cells was calculated from the absorbance of untreated cells. Each experiment was repeated at least three times, and each concentration was tested in at least three replicates. Data were presented as a graph of the percentage of surviving cells versus the concentration of the test substances. The meanings of 50% inhibition concentration (IC50) with standard deviation were calculated using GraphPad Prism Version 5.03 for Windows (GraphPad Software, San Diego, CA, USA).

HCT-116 = assay: MTT assay; type: cell-based, human; conditions: Homo sapiens, HCT-116, 72 h
Method: as §1, §2

MCF-7 = assay: MTT assay; type: cell-based, human; conditions: Homo sapiens, MCF7, 72 h
Method: as §1, §2

SW-480 = assay: MTT assay; type: cell-based, human; conditions: Homo sapiens, SW480, 72 h
Method: as §1, §2

WI-38 = assay: MTT assay; type: cell-based; conditions: Homo sapiens, 72 h, non-tumourigenic cells
Method: as §1, §2

SMILES | IC50 [1] [µM] | FIC, % of Inhibition [1] [%] | NBT, % Inhibition [2] | IC50 (A-549) [µM] | IC50 (HCT-116) [µM] | IC50 (MCF-7) [µM] | IC50 (SW-480) [µM] | IC50 (WI-38) [µM]
c1ccc(SSSc2ccccc2)cc1 [Compound 1, diphenyl trisulfide] | 7760 ± 20 | 25.8 ± 1.1 | non active | 43.6 ± 10.1 | 18.8 ± 1.4 | 37.6 ± 3.7 | 23.8 ± 4.5 | 52.7 ± 8.5
COc1ccccc1SSc1ccccc1OC [Compound 2, bis(2-methoxyphenyl) disulfide] | > 10000 | 7.1 ± 0.2 | not active; also recorded: non active | 29.6 ± 7.5 | 24.4 ± 2.3 | 30.5 ± 5.2 | 22.4 ± 3.8 | 31.9 ± 5.2
COc1ccc(SSc2ccc(OC)c(OC)c2)cc1OC [Compound 3, bis(3,4-dimethoxyphenyl) disulfide] | > 10000 | 7.5 ± 0.3 | 24.3 ± 0.05% | 15.5 ± 3.4 | 18.9 ± 2.1 | 37.7 ± 2.7 | 21.7 ± 2.4 | 32.8 ± 5.4
Oc1ccc(SSc2ccc(O)cc2)cc1 [Compound 4, 4,4′-dihydroxydiphenyl disulfide] | 5620 ± 40 | 47.2 ± 1.5 | 57.8 ± 0.07% | 29.7 ± 6.1 | 22 ± 1.5 | 45.3 ± 3.1 | 39.4 ± 7.9 | 28.7 ± 5.3
c1ccc(SSc2ccccc2)cc1 [Compound 5, diphenyl disulfide] | 3740 ± 20 | – | non active | 39.2 ± 8.7 | 22.1 ± 1.7 | 34.8 ± 12.2 | 30.6 ± 5.6 | 33.7 ± 9.1
CC(C)(C)c1cc(SSc2cc(C(C)(C)C)c(O)c(C(C)(C)C)c2)cc(C(C)(C)C)c1O [Compound 6, bis(3,5-di-tert-butyl-4-hydroxyphenyl) disulfide] | 6100 ± 10 | – | not active; also recorded: non active | > 50 | > 50 | > 50 | > 50 | 115 ± 75

Source: article PMC9229798, “Antioxidant Activity and Cytotoxicity of Aromatic Oligosulfides” (Molecules, 2022)
